Earlier results in patent US6699900B2, “Hydrophilic and lipophilic silibinin pro-forms” (priority 2001, dated 2004).

Conditions: Merck Index, Reference 8680

Compound: COc1cc(C2Oc3cc([C@H]4Oc5cc(O)cc(O)c5C(=O)[C@@H]4O)ccc3OC2CO)ccc1O (stereo partly shown) [silibinin]
- solubility in aqueous or lipophilic phases: not readily soluble
